The text below walks through data of PubChem BioAssay AID256 (DTP/NCI, 2004).

Where “and” joins values, the source holds several entries; their conditions need not be identical. Identical values can stand only once. Toxic doses and inconclusive results are not listed.

The test system of this assay is CD2F1 mice, L1210 leukemia ip, survival T/C. The assay can be described thus: NCI In Vivo Anticancer Drug Screen. Data for tumor model L1210 Leukemia (intraperitoneal) in CD2F1 (CDF1) mice. The settings on record: higher = longer survival. Summed up: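 In this screen, transplantable tumors were grown in mice given either the compound or its vehicle. Results were expressed as the treated measurement relative to the control measurement.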

Where [1] appears, read: endpoint: mean survival time, dose: 25.0 mg/kg/injection, schedule: Q04DX003 (ip), vehicle: saline with Tween-80.
The mark [2] stands for this setting: endpoint: mean survival time, dose: 25.0 mg/kg/injection, schedule: Q04DX002 (ip), vehicle: saline with Tween-80.
Setting [3] is: endpoint: mean survival time, dose: 50.0 mg/kg/injection, schedule: Q04DX002 (ip), vehicle: saline with Tween-80.
Where [4] appears, read: endpoint: mean survival time, dose: 50.0 mg/kg/injection, schedule: Q01DX009 (ip), vehicle: saline with Tween-80.
The mark [5] stands for this setting: endpoint: mean survival time, dose: 100.0 mg/kg/injection, schedule: Q01DX009 (ip), vehicle: saline with Tween-80.
The mark [6] stands for this setting: endpoint: mean survival time, dose: 200.0 mg/kg/injection, schedule: Q01DX009 (ip), vehicle: saline with Tween-80.
Setting [7] is: endpoint: mean survival time, dose: 50.0 mg/kg/injection, schedule: Q04DX003 (ip), vehicle: saline with Tween-80.
The mark [8] stands for this setting: endpoint: mean survival time, dose: 100.0 mg/kg/injection, schedule: Q01DX001 (ip), vehicle: saline with Tween-80.
Where [9] appears, read: endpoint: mean survival time, dose: 200.0 mg/kg/injection, schedule: Q01DX001 (ip), vehicle: saline with Tween-80.
Where [10] appears, read: endpoint: mean survival time, dose: 400.0 mg/kg/injection, schedule: Q01DX001 (ip), vehicle: saline with Tween-80.
Setting [11] is: endpoint: mean survival time, dose: 100.0 mg/kg/injection, schedule: Q04DX003 (ip), vehicle: saline with Tween-80.
[12] abbreviates: endpoint: mean survival time, dose: 200.0 mg/kg/injection, schedule: Q04DX003 (ip), vehicle: saline with Tween-80.

With `COc1cc2oc3c(C)c(=O)cc4oc(-c5ccccc5)cc(c2c2c1CCC(c1ccccc1)O2)c43` (centres undefined), the T/C is 98 % of control (endpoint: median survival time, dose: 0.85 mg/kg/injection, schedule: Q01DX005 (ip), vehicle: Klucel (hydroxypropylcellulose) (HPC)); 98 % of control (endpoint: median survival time, dose: 1.75 mg/kg/injection, schedule: Q01DX005 (ip), vehicle: Klucel (hydroxypropylcellulose) (HPC)); 98 % of control and 102 % of control (endpoint: median survival time, dose: 3.5 mg/kg/injection, schedule: Q01DX005 (ip), vehicle: Klucel (hydroxypropylcellulose) (HPC)); 100 % of control and 102 % of control (endpoint: median survival time, dose: 7.0 mg/kg/injection, schedule: Q01DX005 (ip), vehicle: Klucel (hydroxypropylcellulose) (HPC)); 96 % of control (endpoint: median survival time, dose: 12.5 mg/kg/injection, schedule: Q01DX005 (ip), vehicle: saline with Tween-80); 94 % of control and 96 % of control (endpoint: median survival time, dose: 14.0 mg/kg/injection, schedule: Q01DX005 (ip), vehicle: Klucel (hydroxypropylcellulose) (HPC)). Besides, the T/C was 95 % of control (endpoint: median survival time, dose: 25.0 mg/kg/injection, schedule: Q01DX005 (ip), vehicle: saline with Tween-80); 98 % of control (endpoint: median survival time, dose: 28.0 mg/kg/injection, schedule: Q01DX005 (ip), vehicle: Klucel (hydroxypropylcellulose) (HPC)); 96 % of control (endpoint: median survival time, dose: 50.0 mg/kg/injection, schedule: Q01DX005 (ip), vehicle: saline with Tween-80); 101 % of control (endpoint: median survival time, dose: 56.0 mg/kg/injection, schedule: Q01DX005 (ip), vehicle: Klucel (hydroxypropylcellulose) (HPC)); 91 % of control (endpoint: median survival time, dose: 100.0 mg/kg/injection, schedule: Q01DX005 (ip), vehicle: saline with Tween-80); 95 % of control (endpoint: median survival time, dose: 200.0 mg/kg/injection, schedule: Q01DX005 (ip), vehicle: saline with Tween-80).

`Clc1ccc(C[P+](c2ccccc2)(c2ccccc2)c2ccccc2)c(Cl)c1`: the T/C is 103 % of control (endpoint: mean survival time, dose: 5.0 mg/kg/injection, schedule: Q01DX009 (ip), vehicle: saline sonified); 92 % of control (endpoint: mean survival time, dose: 5.0 mg/kg/injection, schedule: Q04DX003 (ip), vehicle: saline with Tween-80); 96 % of control (endpoint: mean survival time, dose: 10.0 mg/kg/injection, schedule: Q04DX003 (ip), vehicle: saline with Tween-80); 100 % of control (endpoint: mean survival time, dose: 12.5 mg/kg/injection, schedule: Q04DX003 (ip), vehicle: saline with Tween-80); 108 % of control (endpoint: mean survival time, dose: 20.0 mg/kg/injection, schedule: Q04DX003 (ip), vehicle: saline with Tween-80); 93 % of control under setting [1].

On to `O=C(Nc1cc(Cl)cc(Cl)c1)C(F)(F)F`, for which the T/C by setting is: (endpoint: mean survival time, dose: 100.0 mg/kg/injection, schedule: Q01DX001 (ip), vehicle: saline) 107 % of control; (endpoint: mean survival time, dose: 200.0 mg/kg/injection, schedule: Q01DX001 (ip), vehicle: saline) 101 % of control; (endpoint: mean survival time, dose: 400.0 mg/kg/injection, schedule: Q01DX001 (ip), vehicle: saline) 101 % of control.

`O=c1ccn(C2CC3[O][Sn]([c]4ccccc4)([c]4ccccc4)[O]CC3O2)c(=O)[nH]1` (centres undefined): the T/C by setting is: (endpoint: mean survival time, dose: 6.25 mg/kg/injection, schedule: Q01DX005 (ip), vehicle: distilled water + Tween-80) 104 % of control; (endpoint: mean survival time, dose: 12.5 mg/kg/injection, schedule: Q01DX005 (ip), vehicle: distilled water + Tween-80) 98 % of control; (endpoint: mean survival time, dose: 25.0 mg/kg/injection, schedule: Q01DX005 (ip), vehicle: distilled water + Tween-80) 108 % of control; (endpoint: mean survival time, dose: 100.0 mg/kg/injection, schedule: Q01DX005 (ip), vehicle: distilled water + Tween-80) 90 % of control.

With `O=C(Sc1ccccc1)C(CO)c1ccccc1` (centres undefined), the T/C reads like this: under setting [2], 101 % of control; under setting [3], 101 % of control; (endpoint: mean survival time, dose: 100.0 mg/kg/injection, schedule: Q04DX002 (ip), vehicle: saline with Tween-80) 97 % of control.

Take `O=C1c2cc(Cl)ccc2-c2c(Cl)cc(Cl)cc21`: the T/C reads like this: under setting [4], 92 % of control; under setting [5], 101 % of control; under setting [6], 89 % of control.

Turning to `Nc1ccc(N(c2ccccc2)c2ccccc2)cc1`, the T/C (endpoint: mean survival time, dose: 100.0 mg/kg/injection, schedule: Q04DX002 (ip), vehicle: Klucel (hydroxypropylcellulose) (HPC)) is 97 % of control; the T/C (endpoint: mean survival time, dose: 200.0 mg/kg/injection, schedule: Q04DX002 (ip), vehicle: Klucel (hydroxypropylcellulose) (HPC)) was 86 % of control; the T/C (endpoint: mean survival time, dose: 400.0 mg/kg/injection, schedule: Q04DX002 (ip), vehicle: Klucel (hydroxypropylcellulose) (HPC)) is 89 % of control.

On to `CC(=O)CC(C)=O.CC(=O)CC(C)=O.O.O.[Co]`, for which the T/C is 111 % of control (endpoint: mean survival time, dose: 22.0 mg/kg/injection, schedule: Q04DX003 (ip), vehicle: saline with Tween-80); 97 % of control (endpoint: mean survival time, dose: 22.0 mg/kg/injection, schedule: Q04DX003 (ip), vehicle: saline); 114 % of control (endpoint: mean survival time, dose: 33.0 mg/kg/injection, schedule: Q04DX003 (ip), vehicle: saline with Tween-80); 102 % of control (endpoint: mean survival time, dose: 33.0 mg/kg/injection, schedule: Q04DX003 (ip), vehicle: saline); 109 % of control under setting [7]; 108 % of control (endpoint: mean survival time, dose: 50.0 mg/kg/injection, schedule: Q04DX003 (ip), vehicle: saline).

With `COc1ccc(NC(=O)c2ccc(S(=O)(=O)F)cc2)cc1`, the T/C is 97 % of control under setting [8], 95 % of control under setting [9] and 94 % of control under setting [10].

Regarding `COc1ccc(N=NN(C)C(=O)c2ccccc2)cc1`, the T/C is, setting by setting: (endpoint: mean survival time, dose: 50.0 mg/kg/injection, schedule: Q01DX009 (ip), vehicle: Klucel (hydroxypropylcellulose) (HPC)) 107 % of control; (endpoint: mean survival time, dose: 100.0 mg/kg/injection, schedule: Q01DX009 (ip), vehicle: Klucel (hydroxypropylcellulose) (HPC)) 117 % of control; (endpoint: mean survival time, dose: 400.0 mg/kg/injection, schedule: Q01DX009 (ip), vehicle: Klucel (hydroxypropylcellulose) (HPC)) 161 % of control.

Turning to `Cc1ccc(C(=O)Nc2ncn(C3CC(O)C(CO)O3)c(=O)n2)cc1` (centres undefined), the T/C is, setting by setting: (endpoint: mean survival time, dose: 1.56 mg/kg/injection, schedule: Q01DX005 (ip), vehicle: saline with Tween-80) 116 % of control; (endpoint: mean survival time, dose: 3.13 mg/kg/injection, schedule: Q01DX005 (ip), vehicle: saline with Tween-80) 154 % of control; (endpoint: mean survival time, dose: 6.25 mg/kg/injection, schedule: Q01DX005 (ip), vehicle: saline with Tween-80) 276 % of control; (endpoint: mean survival time, dose: 12.5 mg/kg/injection, schedule: Q01DX005 (ip), vehicle: saline with Tween-80) 244 % of control; (endpoint: mean survival time, dose: 50.0 mg/kg/injection, schedule: Q01DX005 (ip), vehicle: saline with Tween-80) 92 % of control.

In the case of `CN1C=Cc2ccccc2C1`, the T/C runs as follows: under setting [8], 93 % of control; under setting [5], 93 % of control; under setting [9], 95 % of control; under setting [10], 93 % of control.

As for `CCCCCCCCCCCC(=O)Nc1ccc(C(C)C)cc1`, the T/C was 97 % of control under setting [11] and 96 % of control under setting [12].

With `O=P(N1CC1)(N1CC1)N1CC1`, the T/C was 110 % of control (endpoint: mean survival time, dose: 2.0 mg/kg/injection, schedule: Q03DX003 (ip), vehicle: saline) and 96 % of control (endpoint: mean survival time, dose: 16.0 mg/kg/injection, schedule: Q01DX009 (ip), vehicle: saline).

With `CCCCCOC(=O)CC(N)C(=O)OCCCCC` (centres undefined), the T/C by setting is: under setting [4], 96 % of control; under setting [5], 100 % of control; under setting [11], 93 % of control; under setting [6], 91 % of control; under setting [12], 93 % of control.

`C=C(Br)CNC(=O)NCC`: the T/C was 94 % of control under setting [1], 105 % of control under setting [7] and 100 % of control under setting [11].

With `c1ccc(OCC2(N3CCCCC3)CCCC2)cc1`, the T/C under setting [2] is 103 % of control and the T/C under setting [3] was 108 % of control.
